In the NIST ThermoML archive (doi:10.1021/je5008394):
± gives the expanded uncertainty stated by the source.

Settings: dynamic light scattering

Compound COC(C)(C)C [2-methoxy-2-methylpropane] has a thermal diffusivity (433.15 K, 5500 kPa, Liquid) of 4.41e-08 ± 9e-10 m2/s, a thermal diffusivity (433.15 K, 7000 kPa, Liquid) of 4.49e-08 ± 9e-10 m2/s and a thermal diffusivity (433.15 K, 8500 kPa, Liquid) of 4.59e-08 ± 9e-10 m2/s. The thermal diffusivity (433.15 K, 10000 kPa, Liquid) was 4.72e-08 ± 1e-09 m2/s, the thermal diffusivity (443.15 K, 101.33 kPa, Liquid) was 4.18e-08 ± 8e-10 m2/s and the thermal diffusivity (443.15 K, 2500 kPa, Liquid) was 4.23e-08 ± 9e-10 m2/s. The thermal diffusivity (443.15 K, 4000 kPa, Liquid) was 4.26e-08 ± 9e-10 m2/s, the thermal diffusivity (443.15 K, 5500 kPa, Liquid) was 4.31e-08 ± 9e-10 m2/s and the thermal diffusivity (443.15 K, 7000 kPa, Liquid) was 4.39e-08 ± 9e-10 m2/s. It also gave a thermal diffusivity (443.15 K, 8500 kPa, Liquid) of 4.49e-08 ± 9e-10 m2/s, a thermal diffusivity (443.15 K, 10000 kPa, Liquid) of 4.61e-08 ± 9e-10 m2/s and a thermal diffusivity (453.15 K, 101.33 kPa, Gas) of 2.36e-07 ± 5e-09 m2/s. The thermal diffusivity (453.15 K, 101.33 kPa, Liquid) was 4.05e-08 ± 8e-10 m2/s, the thermal diffusivity (453.15 K, 2500 kPa, Liquid) was 4.15e-08 ± 8e-10 m2/s and the thermal diffusivity (453.15 K, 4000 kPa, Liquid) was 4.18e-08 ± 8e-10 m2/s. For the same compound, the thermal diffusivity (453.15 K, 5500 kPa, Liquid) was 4.23e-08 ± 9e-10 m2/s, the thermal diffusivity (453.15 K, 7000 kPa, Liquid) was 4.3e-08 ± 9e-10 m2/s and the thermal diffusivity (453.15 K, 8500 kPa, Liquid) was 4.4e-08 ± 9e-10 m2/s. For the same compound, the thermal diffusivity (453.15 K, 10000 kPa, Liquid) was 4.51e-08 ± 9e-10 m2/s, the thermal diffusivity (455.15 K, 101.33 kPa, Gas) was 2.06e-07 ± 4e-09 m2/s and the thermal diffusivity (457.15 K, 101.33 kPa, Gas) was 1.87e-07 ± 4e-09 m2/s. For the same compound, the thermal diffusivity (458.15 K, 101.33 kPa, Liquid) was 3.91e-08 ± 8e-10 m2/s, the thermal diffusivity (458.15 K, 2500 kPa, Liquid) was 4.11e-08 ± 8e-10 m2/s and the thermal diffusivity (458.15 K, 4000 kPa, Liquid) was 4.15e-08 ± 8e-10 m2/s. The thermal diffusivity (458.15 K, 5500 kPa, Liquid) was 4.2e-08 ± 8e-10 m2/s, the thermal diffusivity (458.15 K, 7000 kPa, Liquid) was 4.27e-08 ± 9e-10 m2/s and the thermal diffusivity (458.15 K, 8500 kPa, Liquid) was 4.36e-08 ± 9e-10 m2/s. The thermal diffusivity (458.15 K, 10000 kPa, Liquid) was 4.47e-08 ± 9e-10 m2/s, the thermal diffusivity (459.15 K, 101.33 kPa, Gas) was 1.72e-07 ± 3e-09 m2/s and the thermal diffusivity (461.15 K, 101.33 kPa, Gas) was 1.62e-07 ± 3e-09 m2/s. For the same compound, the thermal diffusivity (463.15 K, 101.33 kPa, Gas) was 1.54e-07 ± 3e-09 m2/s, the thermal diffusivity (463.15 K, 101.33 kPa, Liquid) was 3.86e-08 ± 8e-10 m2/s and the thermal diffusivity (463.15 K, 2500 kPa, Liquid) was 4.08e-08 ± 8e-10 m2/s. The thermal diffusivity (463.15 K, 4000 kPa, Liquid) was 4.11e-08 ± 8e-10 m2/s, the thermal diffusivity (463.15 K, 5500 kPa, Liquid) was 4.16e-08 ± 8e-10 m2/s and the thermal diffusivity (463.15 K, 7000 kPa, Liquid) was 4.23e-08 ± 9e-10 m2/s. The thermal diffusivity (463.15 K, 8500 kPa, Liquid) was 4.32e-08 ± 9e-10 m2/s, the thermal diffusivity (463.15 K, 10000 kPa, Liquid) was 4.43e-08 ± 9e-10 m2/s and the thermal diffusivity (465.15 K, 101.33 kPa, Gas) was 1.47e-07 ± 3e-09 m2/s. The thermal diffusivity (467.15 K, 101.33 kPa, Gas) was 1.38e-07 ± 3e-09 m2/s, the thermal diffusivity (468.15 K, 101.33 kPa, Liquid) was 3.66e-08 ± 7e-10 m2/s and the thermal diffusivity (468.15 K, 2500 kPa, Liquid) was 4.05e-08 ± 8e-10 m2/s. For the same compound, the thermal diffusivity (468.15 K, 4000 kPa, Liquid) was 4.09e-08 ± 8e-10 m2/s, the thermal diffusivity (468.15 K, 5500 kPa, Liquid) was 4.14e-08 ± 8e-10 m2/s and the thermal diffusivity (468.15 K, 7000 kPa, Liquid) was 4.2e-08 ± 8e-10 m2/s. It also gave a thermal diffusivity (468.15 K, 8500 kPa, Liquid) of 4.28e-08 ± 9e-10 m2/s, a thermal diffusivity (468.15 K, 10000 kPa, Liquid) of 4.38e-08 ± 9e-10 m2/s and a thermal diffusivity (469.15 K, 101.33 kPa, Gas) of 1.31e-07 ± 3e-09 m2/s. The thermal diffusivity (471.15 K, 101.33 kPa, Gas) was 1.22e-07 ± 3e-09 m2/s, the thermal diffusivity (473.15 K, 101.33 kPa, Gas) was 1.14e-07 ± 2e-09 m2/s and the thermal diffusivity (473.15 K, 101.33 kPa, Liquid) was 3.55e-08 ± 7e-10 m2/s. The thermal diffusivity (473.15 K, 2500 kPa, Liquid) was 4.02e-08 ± 8e-10 m2/s, the thermal diffusivity (473.15 K, 4000 kPa, Liquid) was 4.06e-08 ± 8e-10 m2/s and the thermal diffusivity (473.15 K, 5500 kPa, Liquid) was 4.11e-08 ± 8e-10 m2/s. For the same compound, the thermal diffusivity (473.15 K, 7000 kPa, Liquid) was 4.18e-08 ± 8e-10 m2/s, the thermal diffusivity (473.15 K, 8500 kPa, Liquid) was 4.25e-08 ± 9e-10 m2/s and the thermal diffusivity (473.15 K, 10000 kPa, Liquid) was 4.34e-08 ± 9e-10 m2/s. It also gave a thermal diffusivity (475.15 K, 101.33 kPa, Gas) of 1.05e-07 ± 2e-09 m2/s, a thermal diffusivity (475.15 K, 101.33 kPa, Liquid) of 3.47e-08 ± 7e-10 m2/s and a thermal diffusivity (477.15 K, 101.33 kPa, Gas) of 9.7e-08 ± 2e-09 m2/s. The thermal diffusivity (477.15 K, 101.33 kPa, Liquid) was 3.36e-08 ± 7e-10 m2/s, the thermal diffusivity (479.15 K, 101.33 kPa, Gas) was 8.8e-08 ± 2e-09 m2/s and the thermal diffusivity (479.15 K, 101.33 kPa, Liquid) was 3.36e-08 ± 7e-10 m2/s. It also gave a thermal diffusivity (481.15 K, 101.33 kPa, Gas) of 7.8e-08 ± 2e-09 m2/s, a thermal diffusivity (481.15 K, 101.33 kPa, Liquid) of 3.3e-08 ± 7e-10 m2/s and a thermal diffusivity (483.15 K, 101.33 kPa, Gas) of 7e-08 ± 2e-09 m2/s. The thermal diffusivity (483.15 K, 101.33 kPa, Liquid) was 3.22e-08 ± 7e-10 m2/s, the thermal diffusivity (483.15 K, 4000 kPa, Liquid) was 4.02e-08 ± 8e-10 m2/s and the thermal diffusivity (483.15 K, 5500 kPa, Liquid) was 4.07e-08 ± 8e-10 m2/s. It also gave a thermal diffusivity (483.15 K, 7000 kPa, Liquid) of 4.12e-08 ± 8e-10 m2/s, a thermal diffusivity (483.15 K, 8500 kPa, Liquid) of 4.19e-08 ± 8e-10 m2/s and a thermal diffusivity (483.15 K, 10000 kPa, Liquid) of 4.27e-08 ± 9e-10 m2/s. It also gave a thermal diffusivity (485.15 K, 101.33 kPa, Gas) of 6.2e-08 ± 1e-09 m2/s, a thermal diffusivity (485.15 K, 101.33 kPa, Liquid) of 3.07e-08 ± 6e-10 m2/s and a thermal diffusivity (487.15 K, 101.33 kPa, Gas) of 5.6e-08 ± 1e-09 m2/s. For the same compound, the thermal diffusivity (487.15 K, 101.33 kPa, Liquid) was 3.02e-08 ± 6e-10 m2/s, the thermal diffusivity (489.15 K, 101.33 kPa, Gas) was 5e-08 ± 1e-09 m2/s and the thermal diffusivity (489.15 K, 101.33 kPa, Liquid) was 2.95e-08 ± 6e-10 m2/s. For the same compound, the thermal diffusivity (491.15 K, 101.33 kPa, Gas) was 4.3e-08 ± 1e-09 m2/s, the thermal diffusivity (491.15 K, 101.33 kPa, Liquid) was 2.81e-08 ± 6e-10 m2/s and the thermal diffusivity (493.15 K, 101.33 kPa, Gas) was 3.1e-08 ± 1e-09 m2/s. The thermal diffusivity (493.15 K, 101.33 kPa, Liquid) was 2.73e-08 ± 6e-10 m2/s, the thermal diffusivity (493.15 K, 4000 kPa, Liquid) was 3.99e-08 ± 8e-10 m2/s and the thermal diffusivity (493.15 K, 5500 kPa, Liquid) was 4.03e-08 ± 8e-10 m2/s. It also gave a thermal diffusivity (493.15 K, 7000 kPa, Liquid) of 4.08e-08 ± 8e-10 m2/s, a thermal diffusivity (493.15 K, 8500 kPa, Liquid) of 4.14e-08 ± 8e-10 m2/s and a thermal diffusivity (493.15 K, 10000 kPa, Liquid) of 4.21e-08 ± 9e-10 m2/s.
